Data published in patent US12673975B2, “Cyclic peptide, cell scaffold material, cell separating material, and medium” (FUJIFILM Corporation, priority 2019, dated 2026).
pKd: −log10 of the molar value. Where two headings read alike, the source gives them in different places. Starred links: 1 amine or outer side, 2 acyl side, 3 side chain; linkers in the order of their positions; H or OH if unused. Positions of bridges follow the written chain, without caps; N, C: chain ends. Non-standard residues stand in square brackets, D forms with d. Residues, ends and D or L forms follow the SMILES beside them. Pen = CC(C)(S)[C@H](N)C(=O)O; hCys = N[C@@H](CCS)C(=O)O; Dab = NCC[C@H](N)C(=O)O; Dap = NC[C@H](N)C(=O)O; X1 = O=C(C[*:2])[*:1]; X2 = O=C(C[*:1])[*:2]

How the values were obtained:
human integrin αvβ5 = human integrin αvβ5 (Homo sapiens, UniProt P06756+P18084); experiment: Evaluation of integrin binding property (surface plasmon resonance, Biacore 3000, immobilized cyclic peptide)
Chain of human integrin αvβ5 (P06756 31-1048): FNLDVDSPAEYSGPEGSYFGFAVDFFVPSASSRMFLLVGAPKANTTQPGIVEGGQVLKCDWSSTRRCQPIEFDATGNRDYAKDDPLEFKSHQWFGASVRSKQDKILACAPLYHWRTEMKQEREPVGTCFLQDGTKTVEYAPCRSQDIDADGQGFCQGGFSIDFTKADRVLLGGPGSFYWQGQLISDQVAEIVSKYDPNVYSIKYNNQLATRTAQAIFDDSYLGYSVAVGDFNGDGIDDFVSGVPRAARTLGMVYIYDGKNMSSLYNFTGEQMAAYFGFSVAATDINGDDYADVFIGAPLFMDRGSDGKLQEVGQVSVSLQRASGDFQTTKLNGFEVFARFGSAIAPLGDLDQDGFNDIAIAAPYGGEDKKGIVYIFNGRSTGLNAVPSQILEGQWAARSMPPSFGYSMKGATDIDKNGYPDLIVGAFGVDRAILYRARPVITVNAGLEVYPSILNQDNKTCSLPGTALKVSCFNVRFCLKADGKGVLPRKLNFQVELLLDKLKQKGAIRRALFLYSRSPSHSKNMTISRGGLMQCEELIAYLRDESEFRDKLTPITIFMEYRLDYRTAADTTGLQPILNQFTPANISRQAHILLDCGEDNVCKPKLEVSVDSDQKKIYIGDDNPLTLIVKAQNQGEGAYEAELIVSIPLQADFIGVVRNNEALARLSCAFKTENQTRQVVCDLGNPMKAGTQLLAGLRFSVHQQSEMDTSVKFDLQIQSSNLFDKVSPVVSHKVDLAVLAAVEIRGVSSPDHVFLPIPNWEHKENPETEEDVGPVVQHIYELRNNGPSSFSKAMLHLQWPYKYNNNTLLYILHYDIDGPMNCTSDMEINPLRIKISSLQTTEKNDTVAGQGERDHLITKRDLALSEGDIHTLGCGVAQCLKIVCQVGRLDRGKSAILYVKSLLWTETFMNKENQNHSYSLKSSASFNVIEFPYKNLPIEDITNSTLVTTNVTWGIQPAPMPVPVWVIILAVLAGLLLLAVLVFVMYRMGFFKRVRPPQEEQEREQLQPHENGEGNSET
Chain of human integrin αvβ5 (P18084 24-799): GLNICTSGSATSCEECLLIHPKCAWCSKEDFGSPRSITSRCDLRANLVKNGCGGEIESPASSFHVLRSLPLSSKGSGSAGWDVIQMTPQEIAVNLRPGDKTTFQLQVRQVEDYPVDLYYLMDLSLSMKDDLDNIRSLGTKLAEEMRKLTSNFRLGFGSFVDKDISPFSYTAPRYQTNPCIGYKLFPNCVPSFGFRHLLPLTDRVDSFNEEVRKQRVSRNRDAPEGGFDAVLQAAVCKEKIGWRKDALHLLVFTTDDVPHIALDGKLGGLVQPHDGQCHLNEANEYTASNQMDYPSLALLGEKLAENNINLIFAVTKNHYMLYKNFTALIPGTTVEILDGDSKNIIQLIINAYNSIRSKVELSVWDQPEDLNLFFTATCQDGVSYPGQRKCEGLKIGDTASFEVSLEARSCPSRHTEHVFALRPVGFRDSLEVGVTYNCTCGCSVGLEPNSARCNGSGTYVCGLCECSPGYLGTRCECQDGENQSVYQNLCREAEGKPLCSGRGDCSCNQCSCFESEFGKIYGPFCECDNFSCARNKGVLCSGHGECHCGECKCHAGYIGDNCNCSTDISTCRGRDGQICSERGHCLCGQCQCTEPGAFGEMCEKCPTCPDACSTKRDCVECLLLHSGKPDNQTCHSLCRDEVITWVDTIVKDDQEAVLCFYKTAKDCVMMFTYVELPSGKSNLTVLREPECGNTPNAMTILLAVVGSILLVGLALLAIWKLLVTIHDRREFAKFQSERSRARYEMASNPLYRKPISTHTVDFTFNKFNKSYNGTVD
How it was run: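 Human αvβ5 (30-1,000 nM) flowed for 10 min at 25 °C over immobilized cyclic peptide in 20 mM HEPES, 150 mM NaCl, 5 mM MgCl2, pH 7.4, followed by 30 min running buffer and 0.5 M EDTA regeneration. Dissociation constant from peptide minus unimmobilized channel, scored into standard grades.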

[1] = Evaluation of molecule stability (alkali treatment, residual rate by LC/MS); type: physicochemical; settings: for Stability (molecule stability, residual rate of the cyclic peptide rank): alkali treatment, residual rate by LC/MS; for Performance evaluation: Stability (residual rate of cyclic peptide after alkali treatment): 500 μM peptide aqueous solution plus equivalent of 1 M sodium hydroxide, 15° C., 3 hours, LC/MS peak area
How it was run: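 Stability read as percent of summed LC/MS peak area remaining versus untreated peptide (C18, 45 °C, 10 mM ammonium formate pH 3, ESI positive/negative). Treatment: 500 μM peptide in water plus an equivalent of 1 M NaOH, 15 °C for 3 hours.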

[2] = surface plasmon resonance, immobilized cyclic peptide, human integrin αvβ5, read-out: Binding activity (integrin binding property, dissociation constant rank)
[3] = SPR, 25° C., HEPES buffer with 5 mM magnesium chloride, integrin 30-1,000 nM, read-out: Performance evaluation: Binding activity (dissociation constant between the cyclic peptide and human integrin αvβ5)

SMILES	pKd (human integrin αvβ5; [2])	pKd (human integrin αvβ5; [3])	Stability (molecule stability, residual rate of the cyclic peptide rank) [1]	Performance evaluation: Stability (residual rate of cyclic peptide after alkali treatment) [1]
C[C@@H]1NC(=O)[C@H](Cc2ccccc2)NC(=O)[C@H](CO)NC(=O)[C@H](CC(=O)O)NC(=O)CNC(=O)[C@H](CCCNC(=N)N)NC(=O)[C@@H]2CCCN2C(=O)[C@H]([C@@H](C)O)NC(=O)[C@@H](NC(=O)[C@H](CCCCN)NC(=O)[C@H](CCCCN)NC(=O)[C@@H](N)CCCCN)CCSCC(=O)NCC[C@@H](C(=O)O)NC1=O [Cyclic peptide 156, KKK-(Hcy)-TPRGDSFA(Dab(acetyl))] (H-KKK[hCys]TPRGDSFA[Dab]-OH; linker 4-13 via X2)	7.00 to 7.30		A (The residual rate of the cyclic peptide is 70% or more.)	
C[C@@H]1NC(=O)[C@H](Cc2ccccc2)NC(=O)[C@H]([C@@H](C)O)NC(=O)[C@H](CC(=O)O)NC(=O)CNC(=O)[C@H](CCCNC(=N)N)NC(=O)[C@@H]2CCCN2C(=O)[C@H](CC(=O)O)NC(=O)[C@@H](NC(=O)[C@H](CCCCN)NC(=O)[C@H](CCCCN)NC(=O)[C@@H](N)CCCCN)CCSCC(=O)NCC[C@@H](C(=O)O)NC1=O [Cyclic peptide 144, KKK-(Hcy)-DPRGDTFA(Dab(acetyl))] (H-KKK[hCys]DPRGDTFA[Dab]-OH; linker 4-13 via X2)	> 7.30		A (The residual rate of the cyclic peptide is 70% or more.)	
CC(C)[C@@H]1NC(=O)[C@@H](NC(=O)[C@H](CCCCN)NC(=O)[C@H](CCCCN)NC(=O)[C@@H](N)CCCCN)CCSCC(=O)NCC[C@@H](C(=O)N[C@@H](C)C(=O)O)NC(=O)[C@H](C)NC(=O)[C@H](Cc2ccccc2)NC(=O)[C@H]([C@@H](C)O)NC(=O)[C@H](CC(=O)O)NC(=O)CNC(=O)[C@H](CCCNC(=N)N)NC(=O)[C@@H]2CCCN2C1=O [Cyclic peptide 165, KKK-(Hcy)-VPRGDTFA(Dab(acetyl))A] (H-KKK[hCys]VPRGDTFA[Dab]A-OH; linker 4-13 via X2)	> 7.30		A (The residual rate of the cyclic peptide is 70% or more.)	
C[C@H](NC(=O)[C@H](CCCCN)NC(=O)[C@H](CCCCN)NC(=O)[C@@H](N)CCCCN)C(=O)N[C@H]1CCSCC(=O)NCC[C@@H](C(=O)N[C@@H](CC(=O)O)C(=O)O)NC(=O)[C@H](CCCNC(=N)N)NC(=O)[C@H](Cc2ccc(O)cc2)NC(=O)[C@H](CO)NC(=O)[C@H](CC(=O)O)NC(=O)CNC(=O)[C@H](CCCNC(=N)N)NC(=O)[C@@H]2CCCN2C(=O)[C@H](CCC(=O)O)NC1=O [Cyclic peptide 33, KKKA-(Hcy)-EPRGDSYR(Dab(acetyl))D] (H-KKKA[hCys]EPRGDSYR[Dab]D-OH; linker 5-14 via X2)		6.70 to 7.00		A (The residual rate of the cyclic peptide is 70% or more.)
N=C(N)NCCC[C@@H]1NC(=O)[C@H](Cc2ccc(O)cc2)NC(=O)[C@H](CC(N)=O)NC(=O)[C@H](CC(=O)O)NC(=O)CNC(=O)[C@H](CCCNC(=N)N)NC(=O)[C@@H]2CCCN2C(=O)[C@H](CCC(=O)O)NC(=O)[C@@H](NC(=O)[C@H](CCCCN)NC(=O)[C@H](CCCCN)NC(=O)[C@@H](N)CCCCN)CNC(=O)CSCC[C@@H](C(=O)O)NC1=O [Cyclic peptide 46, KKK(Dap(acetyl))EPRGDNYR-(Hcy)] (H-KKK[Dap]EPRGDNYR[hCys]-OH; linker 4-13 via X1)		7.00 to 7.30		B (The residual rate of the cyclic peptide is 50% or more and less than 70%.)
CC[C@H](C)[C@@H]1NC(=O)[C@@H](NC(=O)CNC(=O)[C@H](CCCCN)NC(=O)[C@H](CCCCN)NC(=O)[C@@H](N)CCCCN)C(C)(C)SCC(=O)NC[C@@H](C(=O)N[C@@H](C)C(=O)O)NC(=O)[C@H](CCCNC(=N)N)NC(=O)[C@H](Cc2ccccc2)NC(=O)[C@H]([C@@H](C)O)NC(=O)[C@H](CC(=O)O)NC(=O)CNC(=O)[C@H](CCCNC(=N)N)NC(=O)[C@@H]2CCCN2C1=O [Cyclic peptide 128, KKKG-(Pen)-IPRGDTFR(Dap(acetyl))A] (H-KKKG[Pen]IPRGDTFR[Dap]A-OH; linker 5-14 via X2)	> 7.30		B (The residual rate of the cyclic peptide is 50% or more and less than 70%.)	

Second part, led by results:

pKd (human integrin αvβ5; [2])	pKd (human integrin αvβ5; [3])	SMILES	Stability (molecule stability, residual rate of the cyclic peptide rank) [1]	Performance evaluation: Stability (residual rate of cyclic peptide after alkali treatment) [1]
	> 7.30	CC[C@H](C)[C@@H]1NC(=O)[C@@H](NC(=O)CNC(=O)[C@H](CCCCN)NC(=O)[C@H](CCCCN)NC(=O)[C@@H](N)CCCCN)CCSCC(=O)NCC[C@@H](C(=O)NCC(=O)O)NC(=O)[C@H](CCCNC(=N)N)NC(=O)[C@H](Cc2ccccc2)NC(=O)[C@H]([C@@H](C)O)NC(=O)[C@H](CC(=O)O)NC(=O)CNC(=O)[C@H](CCCNC(=N)N)NC(=O)[C@@H]2CCCN2C1=O [Cyclic peptide 55, KKKG-(Hcy)-IPRGDTFR(Dab(acetyl))G] (H-KKKG[hCys]IPRGDTFR[Dab]G-OH; linker 5-14 via X2)		A (The residual rate of the cyclic peptide is 70% or more.)
	> 7.30	CC[C@H](C)[C@@H]1NC(=O)[C@@H](NC(=O)[C@H](CCCCN)NC(=O)[C@H](CCCCN)NC(=O)[C@@H](N)CCCCN)CCSCC(=O)NCC[C@@H](C(=O)NCC(=O)O)NC(=O)[C@H](CCCNC(=N)N)NC(=O)[C@H](Cc2ccccc2)NC(=O)[C@H](CC(N)=O)NC(=O)[C@H](CC(=O)O)NC(=O)CNC(=O)[C@H](CCCNC(=N)N)NC(=O)[C@@H]2CCCN2C1=O [Cyclic peptide 4, KKK-(Hcy)-IPRGDNFR(Dab(acetyl))G] (H-KKK[hCys]IPRGDNFR[Dab]G-OH; linker 4-13 via X2)		A (The residual rate of the cyclic peptide is 70% or more.)
	> 7.30	CC(C)[C@@H]1NC(=O)[C@@H](NC(=O)CNC(=O)[C@H](CCCCN)NC(=O)[C@H](CCCCN)NC(=O)[C@@H](N)CCCCN)CCSCC(=O)NCC[C@@H](C(=O)N[C@@H](C)C(=O)O)NC(=O)[C@H](CCCNC(=N)N)NC(=O)[C@H](Cc2ccccc2)NC(=O)[C@H]([C@@H](C)O)NC(=O)[C@H](CC(=O)O)NC(=O)CNC(=O)[C@H](CCCNC(=N)N)NC(=O)[C@@H]2CCCN2C1=O [Cyclic peptide 70, KKKG-(Hcy)-VPRGDTFR(Dab(acetyl))A] (H-KKKG[hCys]VPRGDTFR[Dab]A-OH; linker 5-14 via X2)		A (The residual rate of the cyclic peptide is 70% or more.)
	> 7.30	CC[C@H](C)[C@@H]1NC(=O)[C@@H](NC(=O)[C@H](C)NC(=O)[C@H](CCCCN)NC(=O)[C@H](CCCCN)NC(=O)[C@@H](N)CCCCN)CCSCC(=O)NCC[C@@H](C(=O)N[C@@H](C)C(=O)O)NC(=O)[C@H](CCCNC(=N)N)NC(=O)[C@H](Cc2ccccc2)NC(=O)[C@H](CC(N)=O)NC(=O)[C@H](CC(=O)O)NC(=O)CNC(=O)[C@H](CCCNC(=N)N)NC(=O)[C@@H]2CCCN2C1=O [Cyclic peptide 2, KKKA-(Hcy)-IPRGDNFR(Dab(acetyl))A] (H-KKKA[hCys]IPRGDNFR[Dab]A-OH; linker 5-14 via X2)		A (The residual rate of the cyclic peptide is 70% or more.)
	> 7.30	CC(C)[C@@H]1NC(=O)[C@@H](NC(=O)CNC(=O)[C@H](CCCCN)NC(=O)[C@H](CCCCN)NC(=O)[C@@H](N)CCCCN)CCSCC(=O)NCC[C@@H](C(=O)N[C@@H](C)C(=O)O)NC(=O)[C@H](C)NC(=O)[C@H](Cc2ccccc2)NC(=O)[C@H](CO)NC(=O)[C@H](CC(=O)O)NC(=O)CNC(=O)[C@H](CCCNC(=N)N)NC(=O)[C@@H]2CCCN2C1=O [Cyclic peptide 98, KKKG-(Hcy)-VPRGDSFA(Dab(acetyl))A] (H-KKKG[hCys]VPRGDSFA[Dab]A-OH; linker 5-14 via X2)		A (The residual rate of the cyclic peptide is 70% or more.)
7.00 to 7.30		CC[C@H](C)[C@@H]1NC(=O)[C@@H](NC(=O)CNC(=O)[C@H](CCCCN)NC(=O)[C@H](CCCCN)NC(=O)[C@@H](N)CCCCN)CCCCNC(=O)CSCC[C@@H](C(=O)N[C@@H](C)C(=O)O)NC(=O)[C@H](CCCNC(=N)N)NC(=O)[C@H](Cc2ccccc2)NC(=O)[C@H]([C@@H](C)O)NC(=O)[C@H](CC(=O)O)NC(=O)CNC(=O)[C@H](CCCNC(=N)N)NC(=O)[C@@H]2CCCN2C1=O [Cyclic peptide 120, KKKG(Lys(acetyl))IPRGDTFR-(Hcy)-A] (H-KKKGKIPRGDTFR[hCys]A-OH; linker 5-14 via X1)	A (The residual rate of the cyclic peptide is 70% or more.)	
	7.00 to 7.30	C[C@H](NC(=O)[C@H](CCCCN)NC(=O)[C@H](CCCCN)NC(=O)[C@@H](N)CCCCN)C(=O)N[C@H]1CCSCC(=O)NCC[C@@H](C(=O)N[C@@H](CC(=O)O)C(=O)O)NC(=O)[C@H](CCCNC(=N)N)NC(=O)[C@H](Cc2ccc(O)cc2)NC(=O)[C@H](CC(N)=O)NC(=O)[C@H](CC(=O)O)NC(=O)CNC(=O)[C@H](CCCNC(=N)N)NC(=O)[C@@H]2CCCN2C(=O)[C@H](CCC(=O)O)NC1=O [Cyclic peptide 42, KKKA-(Hcy)-EPRGDNYR(Dab(acetyl))D] (H-KKKA[hCys]EPRGDNYR[Dab]D-OH; linker 5-14 via X2)		A (The residual rate of the cyclic peptide is 70% or more.)
